Reference: ChEMBL document CHEMBL3430912, “GSK Tres Cantos Anti-Kinetoplastid Screening (TCAKS) Data”

Experiments:
[1] = tested on: Trypanosoma cruzi; assay: GSK_TCAKS: pIC50 Trypanosoma cruzi viability assay using beta-GAL activity. This assay was run at single shot at 5uM compound concentration per well. The biological reagents consisted of NIH-3T3 host cells and trypomastigotes parasitic cells; both cell types were set to a 3.3 * 10^5 cells/mL dilution in assay DMEM by means of a CASY cell counter device using a 60um capillary. 6 uL of the mixture were dispensed per well (about 1 * 10^3 host-cells and 1 * 10^3 parasites) with a Multidrop Combi dispenser. […] In all wells, the percentage of DMSO never exceeded 0.5%. Plates incubated for four days at 37C, 5% CO2. The substrate used for the assay fluorescence intensity (FLINT) readout was resorufin-beta-D-galactopiranoside (Sigma-Aldrich) at 5uM per well. It was diluted in PBS supplemented with the soft detergent Igepal (Fluka).; type: functional, organism-based, Mus musculus; conditions: Tulahuen, NIH3T3
[2] = tested on: Trypanosoma cruzi; assay: (§1) GSK_TCAKS: pIC50 Trypanosoma cruzi Imaging: Infected Cells. […] Cells were then washed once with PBS before infection. T. cruzi trypomastigotes, collected at days 5 to 8 after infection from LLC-MK2 parasite infected cultures, were allowed to swim out for 4h at 37C from a centrifuged pellet (2,500 rpm/10 min/room temperature). Trypomastigotes were then collected and counted in a CASY Cell Counter. Trypomastigotes, in supplemented DMEM, were added to H9c2 cultures in a multiplicity of infection of 1 and incubated for 18 h. Cells were washed once with PBS before incubation of the infected H9c2 monolayer with trypsin (Life-Technologies) to detach cells from the flask. Cells were counted in a CASY Cell Counter using a 150 um capillary and their density set at 5 * 10^4 cells per mL in supplemented assay DMEM. Infected H9c2 were dispensed into 384-well poly-lysine coated assay plates at 50uL per well using a Multidrop Combi dispenser. After seeding them, the plates were incubated at 37C, 5% CO2 for 72h. Cultures were then fixed and stained by addition of 50 uL of a solution containing 8% formaldehyde and 4 uM DRAQ5 DNA dye (BioStatus, UK) per well. […] Five images were collected per well for reliable statistical analysis. Automated image analysis was performed with a script developed on Acapella High Content Imaging and Analysis Software (PerkinElmer). Output: percentage of infected cells per well as a second infection marker.; type: functional, organism-based, Rattus norvegicus; conditions: H9c2, 4 h
[3] = tested on: Trypanosoma cruzi; assay: GSK_TCAKS: pIC50 Trypanosoma cruzi Imaging: Amastigotes/Cell. […] Cells were then washed once with PBS before infection. T. cruzi trypomastigotes, collected at days 5 to 8 after infection from LLC-MK2 parasite infected cultures, were allowed to swim out for 4h at 37C from a centrifuged pellet (2,500 rpm/10 min/room temperature). Trypomastigotes were then collected and counted in a CASY Cell Counter. Trypomastigotes, in supplemented DMEM, were added to H9c2 cultures in a multiplicity of infection of 1 and incubated for 18 h. Cells were washed once with PBS before incubation of the infected H9c2 monolayer with trypsin (Life-Technologies) to detach cells from the flask. Cells were counted in a CASY Cell Counter using a 150 um capillary and their density set at 5 * 10^4 cells per mL in supplemented assay DMEM. Infected H9c2 were dispensed into 384-well poly-lysine coated assay plates at 50uL per well using a Multidrop Combi dispenser. After seeding them, the plates were incubated at 37C, 5% CO2 for 72h. Cultures were then fixed and stained by addition of 50 uL of a solution containing 8% formaldehyde and 4 uM DRAQ5 DNA dye (BioStatus, UK) per well. […] Five images were collected per well for reliable statistical analysis. Automated image analysis was performed with a script developed on Acapella High Content Imaging and Analysis Software (PerkinElmer). Output: number of amastigotes per cell as infection level measurement.; type: functional, organism-based, Rattus norvegicus; conditions: H9c2, 4 h
[4] = tested on: Trypanosoma cruzi; assay: as §1, with “H2C9” for “Trypanosoma cruzi”, “H9c2 Host Cardiomyocytes.” for “Infected Cells.”, “Number” for “percentage”, “H9c2 Host Cardiomyocytes nuclei to determine drug-related cytotoxicity.” for “infected cells per well as a second infection marker.”; type: functional, organism-based, Rattus norvegicus; conditions: H9c2, 4 h
[5] = tested on: Leishmania donovani; assay: GSK_TCAKS: pIC50 Leishmania donovani viability assay using fluorescence intensity. Assay plates (1536-well) were prepared by adding 30nL per well of compound. For single shot assay, the final compound concentration was 5uM. […] Briefly, eGFP LdBOB axenic amastigotes were harvested, fixed and counted in a CASY cell counter (Roche-Applied Science). A final concentration of 1.5 * 10^5 cells per well were prepared in amastigote media containing 500 U/mL penicillin/streptomycin (Invitrogen) and 6uL was dispensed to each experimental well using a Multidrop Combi dispenser (Thermo Scientific). 6uL of assay media was dispensed to control columns used as reference for 100% compound response. Following incubation for 72 h at 37C, 5% CO2, 2 uL of resazurin was added to each well at a final concentration of 0.5 mM in phosphate buffered saline (PBS) with IGEPAL (Sigma-Aldrich), 0.05% (v/v).; type: functional, organism-based
[6] = tested on: Leishmania donovani; assay: (§2) GSK_TCAKS: pIC50 Leishmania donovani Imaging: Infected Macrophages. Assay plates (384-well) were prepared by adding 250nL of compound to each well. For single shot assay, the final compound concentration was 5 uM. […] Automated image analysis was performed with a script developed on Acapella High Content Imaging and Analysis Software (PerkinElmer). Output: Percent of infected macrophage cells were reported for each well.; type: functional, organism-based, Homo sapiens; conditions: THP-1
[7] = tested on: Leishmania donovani; assay: as §2, with “Amastigotes/Macrophages.” for “Infected Macrophages.”, “Average number” for “Percent”, “amastigotes per” for “infected”, “cell” for “cells”; type: functional, organism-based, Homo sapiens; conditions: THP-1
[8] = tested on: Leishmania donovani; assay: as §2, with “THP-1 Host” for “Infected”, “THP-1 cell count” for “Percent of infected macrophage cells”; type: functional, organism-based, Homo sapiens
[9] = tested on: Trypanosoma brucei brucei; assay: GSK_TCAKS: pIC50 Trypanosoma brucei viability assay using fluorescence intensity. Assay plates (1536-well) were prepared by dispensing 25nL of compound solution per well using an Echo acoustic dispenser (Labcyte).; type: functional, organism-based; conditions: Lister 427, 2 h
[10] = tested on: Trypanosoma brucei brucei; assay: GSK_TCAKS: pIC50 Trypanosoma brucei viability assay using luminiscence. Assay plates (1536-well) were prepared. T. brucei cultures were harvested and counted in a CASY cell counter. A parasite suspension was prepared at a final concentration of 5 * 10^4 cells/mL in complete HMI9 medium and 6uL was dispensed to all wells containing compounds using a Multidrop Combi dispenser. 6uL of HMI9 media with 0.4% DMSO were dispensed to control columns. Plates were incubated for 24 h at 37C, 5% CO2 then tempered for 10 min at room temperature. ATP content was quantified by adding 4 uL of CellTiter-Glo Reagent (Promega) according to the manufacturer's instructions. Luminescence was measured using a ViewLux.; type: functional, organism-based; conditions: Lister 427, CASY
[11] = GSK_TCAKS: pIC50 HepG2 human cell line viability assay using luminiscence. […] Seeding density was checked to ensure that new mono-layers were not more than 50% confluent at the time of harvesting. Cell suspension was added to 500 mL of the same medium at a final density of 1.2 * 10^5 cells/mL. This cell suspension was dispensed (25 uL, 3000 cells per well) into 384-well clear-bottom plates using a Multidrop Combi dispenser. Prior to addition of the cell suspension, the screening compounds (250 nL) were pre-dispensed into the plates with an Echo liquid handler. Plates were incubated for 48 h at 37C, 5% CO2. After incubation, plates equilibrated at room temperature for 30 min before proceeding to develop the luminescent signal. The signal developer, CellTiter-Glo Reagent, was allowed to equilibrate at room temperature for 30 min and added to the plates (25uL per well) using a Multidrop Combi dispenser. Plates were left for 10 min at room temperature for stabilization and then read using a ViewLux.; type: toxicity, cell-based
[12] = tested on: NIH3T3; assay: GSK_TCAKS: pIC50 NIH 3T3 cell line viability assay using luminiscence. Tissue culture surface treated assay plates (1536-well) were used. […] The 100% cells survival control was determined exposing the host-cells to a 0.5% DMSO concentration, whereas the 100% toxicity control was achieved by seeding the cells in presence of Amphotericin B at 50uM. Plates were incubated for four days at 37C, 5% CO2. The assay readout was developed by addition of 5uL of CellTiter-Glo Reagent following the manufacturer's instructions. Luminiscence was measured using a ViewLux.; type: functional, cell-based; conditions: Mus musculus, NIH3T3, 96 h
[13] = molecular target: Sterol 14-alpha demethylase (Trypanosoma cruzi (strain CL Brener), UniProt Q7Z1V1); assay: GSK_TCAKS: pIC50 CYP51 from Trypanosoma cruzi.; type: functional
Sequence of Sterol 14-alpha demethylase (Q7Z1V1 whole entry): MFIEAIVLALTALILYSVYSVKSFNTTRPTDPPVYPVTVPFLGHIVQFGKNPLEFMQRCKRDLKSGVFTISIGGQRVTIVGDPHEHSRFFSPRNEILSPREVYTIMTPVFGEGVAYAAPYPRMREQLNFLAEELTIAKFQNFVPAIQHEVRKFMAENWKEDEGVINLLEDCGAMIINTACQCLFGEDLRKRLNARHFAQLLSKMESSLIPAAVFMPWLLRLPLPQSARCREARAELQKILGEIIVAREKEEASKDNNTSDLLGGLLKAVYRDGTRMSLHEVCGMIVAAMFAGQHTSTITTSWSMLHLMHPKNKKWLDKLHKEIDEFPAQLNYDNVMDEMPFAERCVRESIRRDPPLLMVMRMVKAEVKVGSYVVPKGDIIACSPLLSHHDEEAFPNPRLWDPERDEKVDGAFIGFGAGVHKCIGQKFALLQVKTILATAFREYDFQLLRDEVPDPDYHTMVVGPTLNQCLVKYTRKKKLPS

Row | SMILES | IC50 [1] [µM] | IC50 [2] [µM] | IC50 [3] [µM] | IC50 [4] [µM] | IC50 [5] [µM] | IC50 [6] [µM] | IC50 [7] [µM] | IC50 [8] [µM] | IC50 [9] [µM] | IC50 [10] [µM] | IC50 at 48 h [11] [µM] | IC50 [12] [µM] | IC50 [13] [µM]
1 | O=C(NCCNc1noc(-c2ccc([N+](=O)[O-])cc2)n1)c1ccc(Cl)cc1 | 2 | > 50.1 | 1.26 | > 50.1 | > 50.1 | > 50.1 | > 50.1 | 15.8 | 3.16 | > 39.8 | > 100 | > 50.1 | > 100
2 | O=C(N1CCc2ccccc2CC1)C1(C(=O)N2CCC(n3c(=O)[nH]c4ncccc43)CC2)CC1 | 0.631 | 0.794 | 0.631 | > 50.1 | > 50.1 | > 50.1 | > 50.1 | > 50.1 | > 39.8 | > 39.8 | > 100 | 39.8 | 0.316
3 | Cc1c([N+](=O)[O-])c(C(=O)Nc2sc3c(c2C#N)CCC(C)C3)nn1C (centres undefined) | 2.51 | 2.51 | 1.58 | > 50.1 | 25.1 | 31.6 | 15.8 | > 50.1 | > 39.8 | > 39.8 | > 100 | 12.6 | > 100
4 | CCN(CC)S(=O)(=O)c1ccc(Cn2nc(C(=O)Nc3ccncn3)c3ccccc32)cc1 | 0.316 | 0.398 | 0.398 | 25.1 | > 50.1 | > 50.1 | > 50.1 | > 50.1 | 31.6 | > 39.8 | > 100 | 39.8 | 0.158
5 | O=C(NCCc1ccccc1Cl)c1cccn1-c1cccnc1 | 0.398 | 0.501 | 0.501 | > 50.1 | 6.31 | > 50.1 | > 50.1 | > 50.1 | 31.6 | > 39.8 | > 100 | 31.6 | 0.0794
6 | Clc1cc(Br)ccc1OCCCCn1ccnc1 | 0.631 | 0.251 | 0.316 | 25.1 | 0.126 | 25.1 | 6.31 | 31.6 | 10 | 20 | 50.1 | 15.8 | 0.0631
7 | Cc1ccc2sc(NC(=O)Cn3cnc([N+](=O)[O-])n3)nc2c1 | 1.26 | 3.98 | 0.501 | > 50.1 | > 50.1 | > 50.1 | > 50.1 | > 50.1 | 25.1 | > 39.8 | > 100 | 50.1 | > 100
8 | CCCN(Cc1ccc(OC)c(OC)c1)Cc1cc(=O)c2c(C)cc(C)cc2[nH]1 | 2 | 2 | 0.501 | > 50.1 | 20 | 25.1 | 20 | 5.01 | 25.1 | > 39.8 | 63.1 | 31.6 | > 100
